Source: patent publication US20040132697A1, “Treatment of female sexual dysfunction” (Pfizer Inc., priority 2002, published 2004)
Structures can show the parent of a compound that is named as a salt.

Legend:
FSAD = details: Rosen, R. C. et al (1999) J. Sex Marital Therapy 25, 137-144; cited from earlier work
[1] = tested on: anaesthetised rabbit model of female sexual arousal; assay: Anaesthetised rabbit model of female sexual arousal: pelvic nerve stimulated genital blood flow (laser Doppler); type: in vivo; details: for Potentiation of pelvic nerve stimulated increases in vaginal blood flow (% increase over basal increase): i.v. infusion, n=4
Source text: We have developed an animal model that mimics the physiological arousal response observed during female sexual arousal and directly reflects the clinical data obtained in human volunteers. The model uses Laser Doppler technologies to record small changes in vaginal and clitoral blood flow induced by pelvic nerve stimulation or vasoactive neurotransmitters. During sexual arousal, there is an increase in genital blood flow resulting from increased innervation from the pelvic nerve. The pelvic nerve-stimulated increase in vaginal and clitoral blood flow, observed in the animal model, represents the endogenous vascular effects observed during female sexual arousal. Therefore this model can be used to firstly, identify the mechanisms involved in the regulation of vaginal and clitoral blood flow and secondly, to validate novel approaches for the enhancement of genital blood flow.
(a) The Experimental Details are Described in European patent application EP 1 097 719 A1, Paragraphs [0495]-[0500]
(b) Infusion of Test Compound to Achieve Free Plasma Concentration Equivalent to 0.1 to 100 Times the pA2 α1A and/or α1L Adrenergic Receptors.
To achieve steady state plasma concentrations of the test compound, a loading dose was administered followed by infusion of a steady state dose. The test compound was made up in acidified saline (5% 1M HCl in saline) and details of the infusion protocols are given in the Table below. Test compound and vehicle controls were infused at the same rate. The test compound was infused for 15 minutes prior to pelvic nerve stimulation.
All data are reported as mean±s.e.m. (Standard error of the mean). Significant changes were identified using Student's t-tests (independent).
Compound 1, a potent and selective α1A and/or α1L adrenergic receptor antagonist, enhanced pelvic nerve stimulated (PNS) increases in genital blood flow in the anaesthetised rabbit model of sexual arousal. Repetitive PNS at 15 minute intervals induced reproducible increases in genital blood flow (Open Bar). […] The percentage increase over basal stimulations are showin in table 1 below. […] Data expressed as mean±sem (n=4); all changes were monitored using laser Doppler technologies.

Row | SMILES | Effect on FSAD in small pilot study (FSAD) | Clitoral blood flow ([1]; data not shown) | Cardiovascular effects ([1]; during infusion) | Potentiation of pelvic nerve stimulated increases in vaginal blood flow (% increase over basal increase) ([1]; free plasma concentration 0.1 × pA2 α1A and/or α1L) [%] | Potentiation of pelvic nerve stimulated increases in vaginal blood flow (% increase over basal increase) ([1]; free plasma concentration 1 × pA2 α1A and/or α1L) [%] | Potentiation of pelvic nerve stimulated increases in vaginal blood flow (% increase over basal increase) ([1]; free plasma concentration 10 × pA2 α1A and/or α1L) [%] | Potentiation of pelvic nerve stimulated increases in vaginal blood flow (% increase over basal increase) ([1]; free plasma concentration 100 × pA2 α1A and/or α1L) [%] | Pelvic nerve stimulated (PNS) increases in genital blood flow ([1]; submaximal stimulation (eg 4 Hz), versus time matched or vehicle controls)
1 | Cc1ccc(N(CC2=NCCN2)c2cccc(O)c2)cc1 [Phentolamine mesylate] | mild improvements |  |  |  |  |  |  | 
2 | COc1cc(C2CC2)c2c(=O)[nH]c(N3CCc4nc(CN5CCOCC5)ccc4C3)nc2c1 [Compound 1, 5-cyclopropyl-7-methoxy-2-(2-(4-morpholinylmethyl)-7,8-dihydro[1,6]naphthyridin-6(5H)-yl)-4(3H)-quinazolinone] |  | increased | No significant cardiovascular effects | 39 | 102 | 104 | 213 | enhanced
